Data on seven compounds can be found in US11125741B2, “Compositions and methods for the detection of zinc” (Northwestern University, priority 2012, dated 2021).

For test [1], the system named is mouse eggs. Nature of the test: Time-lapse imaging of zinc sparks and calcium transients in parthenogenetically activated eggs. Format: cell-based. As for the experimental part: Time-lapse imaging of parthenogenetically activated eggs. Eggs were first incubated in 10 μM Calcium Green-1 AM (Invitrogen) and 0.04% (w/v) Pluronic F-127 (Invitrogen) for either 30 min (mouse) or 60 min (non-human primate) at 37° C. Mouse eggs were washed in calcium-free KSOM (Millipore) and transferred to a 50 μl drop containing 10 mM SrCl2 (Sigma-Aldrich) and 50 μM FluoZin-3 (Invitrogen) on a glass-bottom dish (Bioptechs Inc.). Non-human primate eggs were transferred to one end of a long and shallow drop (20 μl) of calcium-free KSOM (Millipore) containing 50 μM FluoZin-3 (Invitrogen) on a glass-bottom dish (Bioptechs Inc.), covered with oil for embryo culture (Irvine Scientific, Santa Ana, Calif.). Ionomycin was perfused in at the opposite end to a final concentration of 20 μM. In both cases, image acquisition began immediately and occurred every 4 s for a total of 1-3 hours (mouse) or 15 min (non-human primate), unless noted otherwise. All images were acquired on a TCS SP5 confocal microscope (Leica Microsystems) equipped with a stage top incubator (Tokai Hit), 20× objective, and an Ar (488 nm) laser line.
Additional experiments were consistent with this determination. […] Second, zinc sparks were absent in eggs treated with the membrane permeable acetoxymethyl ester (AM) derivative of 1,2-bis(o-aminophenoxy)ethane-N,N,N′,N′-tetraacetic acid (BAPTA).
The polarization of the zinc-enriched vesicles mirrors that of the cortical granules (CG), which are exocytic vesicles that participate in the cortical reaction, which involves the hardening of the zona pellucida to establish a block to polyspermy at fertilization (Ducibella. (1996) Hum Reprod Update 2, 29-42.; herein incorporated by reference in its entirety). […] In most cases, subsequent sparks were inhibited (SEE FIG. 9). Experiments conducted during development of embodiments of the present invention indicate that zinc-containing vesicles are pre-fused with the egg membrane, allowing the first spark to occur even in the presence of CytoB. This type of phenomenon has been described for cortical granules in the sea urchin egg, where one subset of CGs are in a hemifused state prior to activation21.

The conditions of test [2]: Gee et al. 2002; cited from earlier work.
In test [3] the test system is mouse eggs. Description: TPEN treatment and spindle imaging of mouse eggs. Format: cell-based. The following applies: 10 μM, 8 hrs of culture. As for the experimental part: FIGS. 12a-e show perturbation of intracellular zinc availability causes activation of the egg. Following 8 hours of culture, control eggs maintain a metaphase II spindle (a, sp) with individual chromosomes aligned at the metaphase plate (b). In contrast, eggs exposed to 10 μM TPEN for the same period artificially activate as indicated by the formation of an intact pronucleus (c, pn) with decondensed chromatin surrounding a nucleolus (d).
TPEN treatment and spindle imaging of mouse eggs. Superovulated eggs were collected and transferred to KSOM medium (Millipore) with or without 10 μM TPEN and cultured up to 8 hrs at 37° C. in an atmosphere of 5% CO2 in air. […] Eggs were fixed and permeabilized for 30 min at 37° C. in a solution containing 2% formaldehyde, 2% Triton X-100, 100 mM PIPES, 5 mM MgCl2, and 2.4 mM EGTA. Eggs were then washed and blocked for 1-3 hrs in 1× PBS containing 0.1 M glycine, 3 mg/mL BSA, 0.01% Tween-20, and 0.01% sodium azide followed by incubation with […] (1:100, Sigma) in blocking buffer for 1 hr at 37° C. Eggs were washed again in blocking buffer, incubated in Alexa Fluor 488-conjugated goat anti-mouse IgG (Invitrogen) and rhodamine-phalloidin conjugate (Invitrogen) at 37° C. for 1 hr, washed three additional times, and mounted on microscopy slides with coverslips in Vectashield with DAPI. […]

For test [4] the following is noted: pM reflects the log of the free ion concentration; cited from earlier work.
For the next test, the system named is activated mouse eggs. The following applies: 10 μM, 10 min at 1.5 hpa.
[5] abbreviates: treated prior to strontium chloride activation.

With `CC(=O)OCOC(=O)CN(CC(=O)OCOC(C)=O)c1ccccc1OCCOc1ccccc1N(CC(=O)OCOC(C)=O)CC(=O)OCOC(C)=O` [BAPTA AM], the “parthenogenetic activation on long-term exposure” value in the test on mouse eggs [1] (10 μM) was “did not parthenogenetically activate eggs”. The “calcium transients and zinc sparks” value in the test with mouse eggs [1] (extended culture in strontium chloride) is “both calcium transients and zinc sparks were absent”. In the test with mouse eggs [1] (strontium chloride activation), the “second polar body extrusion and pronucleus formation” value is listed as “did not extrude a second polar body or form a pronucleus”. In the case of `C=C1[C@@H](C)[C@H]2[C@H](Cc3ccccc3)NC(=O)[C@]23OC(=O)/C=C/[C@H](O)CCC[C@@H](C)C/C=C/[C@H]3[C@@H]1O` [CytoB, cytochalasin B], in the test with mouse eggs [1] (setting [5]), the “calcium oscillations upon activation” value is “normal calcium oscillations” and the “zinc sparks upon activation” value was “only exhibit a single zinc spark”. Regarding `COc1ccc(N(CC(=O)O)CC(=O)O)c(OCCOc2cc(-c3c4cc(F)c(=O)cc-4oc4cc(O)c(F)cc34)ccc2NCC(=O)O)c1` [FluoZin-3], the “fluorescence turn-on for Zn” value in test [2] is 80 fold. Take `c1ccc(CN(CCN(Cc2ccccn2)Cc2ccccn2)Cc2ccccn2)nc1` [TPEN]: the “egg activation (pronucleus-like structure)” value in the test with mouse eggs [3] is listed as “had a pronucleus-like structure at significantly higher rates”. Besides, the “zinc sparks in zinc-insufficient eggs” value in the test on mouse eggs [1] (oocytes treated during in vitro maturation, then activated) is “did not undergo zinc sparks”. Consider `CCOC(=O)COc1cc(NS(=O)(=O)c2ccc(C)cc2)c2nc(C)ccc2c1` [zinquin ethyl ester], for which the pM value in test [4] is recorded as 9.3.

Regarding carbonic anhydrase, the pM value in test [4] is reported as 12.4. As to zinc pyrithione [ZnPT], the “eggs lacking a pronucleus with aligned chromosomes” value in the test with activated mouse eggs is “eighty-four”. In the test with activated mouse eggs (scored 6-8 hpa), the “eggs that formed a pronucleus” value is reported as “seventeen”.
